Patent EP0908457B1, “3-(1,2-benzisothiazol- and isoxazol-5-Y1)-2,4(1H,3H)-pyrimidinedione or thione and 3-(1,2-benzisothiazol- and isoxazol-5-y1)-4(3H)-pyrimidinone or thione herbicidal agents” (BASF AKTIENGESELLSCHAFT, priority 1997, dated 1999)

Experiments:
[1] = system: Echinochloa oryzoides (Ard.) Fritsch.; assay: Preemergence weed control under flooded paddy conditions, ECHORC (Watergrass (Calif.)); format: in vivo; also: meaning of each grade not given here
[2] = system: Cyperus iria; assay: Preemergence weed control under flooded paddy conditions, CYPIR (Rice Flatsedge); format: in vivo; also: meaning of each grade not given here
[3] = system: Monochoria vaginalis, Presl.; assay: Preemergence weed control under flooded paddy conditions, MOOVA (Monochoria); format: in vivo; also: meaning of each grade not given here
[4] = system: Echinochloa oryzoides (Ard.) Fritsch.; assay: Postemergence weed control under flooded paddy conditions, ECHORC (Watergrass (Calif.)); format: in vivo; settings: rated three to four weeks after treatment
[5] = system: Cyperus iria; assay: Postemergence weed control under flooded paddy conditions, CYPIR (Rice Flatsedge); format: in vivo; settings: rated three to four weeks after treatment
[6] = system: Cyperus serotinus, Rottb.; assay: Postemergence weed control under flooded paddy conditions, CYPSE (Flatsedge); format: in vivo; settings: rated three to four weeks after treatment
[7] = system: Monochoria vaginalis, Presl.; assay: Postemergence weed control under flooded paddy conditions, MOOVA (Monochoria); format: in vivo; settings: rated three to four weeks after treatment
[8] = system: Sagittaria pygmaea, L.; assay: Postemergence weed control under flooded paddy conditions, SAGPY (Arrowhead (Pygmaea)); format: in vivo; settings: rated three to four weeks after treatment
[9] = system: Oryza sativa, (L.) Tebonnet; assay: Rice tolerance to post-transplant applications under flooded paddy conditions (Example 188), ORYSAT (Rice, Tebonnet); settings: rated three to four weeks after treatment
[10] = system: Cyperus serotinus, Rottb.; assay: Preemergence weed control under flooded paddy conditions, CYPSE (Flatsedge); format: in vivo; settings: preemergence, rated three to four weeks after treatment; also: meaning of each grade not given here
[11] = system: Sagittaria pygmaea, L.; assay: Preemergence weed control under flooded paddy conditions, SAGPY (Arrowhead (Pygmaea)); format: in vivo; settings: preemergence, flooded paddy, rated three to four weeks after treatment; also: meaning of each grade not given here
[12] = system: Oryza sativa, (L.) Tebonnet; assay: Rice tolerance to post-transplant applications under flooded paddy conditions (Example 187), ORYSAT (Rice, Tebonnet); settings: rated three to four weeks after treatment; also: meaning of each grade not given here
[13] = Rate 0.0320 kg/ha, preemergence, flooded paddy, rated three to four weeks after treatment
[14] = Rate 0.0620 kg/ha, preemergence, flooded paddy, rated three to four weeks after treatment
[15] = Rate 0.1250 kg/ha, preemergence, flooded paddy, rated three to four weeks after treatment
[16] = Rate 0.2500 kg/ha, preemergence, flooded paddy, rated three to four weeks after treatment

COC(=O)C(C)Oc1ccc(C)cc1-c1nsc2ccc(-n3c(=O)cc(C(F)(F)F)n(C)c3=O)cc12 (stereo not shown) [Example 3, Methyl 2-{{2-{5-[3,6-dihydro-3-methyl-4-(trifluoromethyl)-2,6-dioxo-1(2H)-pyrimidinyl]-1,2-benzisothiazol-3-yl}-p-tolyl}oxy}propionate]
0.0: herbicidal effect rating, ECHORC ([4]; Rate 0.0313 kg/ha) | herbicidal effect rating, ECHORC ([4]; Rate 0.0625 kg/ha) | herbicidal effect rating, ECHORC ([4]; Rate 0.1250 kg/ha) | herbicidal effect rating, CYPSE ([6]; Rate 0.0313 kg/ha) | herbicidal effect rating, CYPSE ([6]; Rate 0.0625 kg/ha) | herbicidal effect rating, CYPSE ([6]; Rate 0.1250 kg/ha) | herbicidal effect rating, CYPSE ([6]; Rate 0.2500 kg/ha) | herbicidal effect rating, CYPSE ([6]; Rate 0.5000 kg/ha) | herbicidal effect rating, SAGPY ([8]; Rate 0.0313 kg/ha) | herbicidal effect rating, SAGPY ([8]; Rate 0.0625 kg/ha) | herbicidal effect rating, SAGPY ([8]; Rate 0.1250 kg/ha) | herbicidal effect rating, SAGPY ([8]; Rate 0.2500 kg/ha) | herbicidal effect rating, SAGPY ([8]; Rate 0.5000 kg/ha)
2.0: herbicidal effect rating, ECHORC ([4]; Rate 0.2500 kg/ha) | herbicidal effect rating, ORYSAT (rice tolerance) ([9]; Rate 0.0313 kg/ha) | herbicidal effect rating, ORYSAT (rice tolerance) ([9]; Rate 0.0625 kg/ha)
9.0: herbicidal effect rating, ECHORC ([1]; in vivo) | herbicidal effect rating, CYPIR ([2]; in vivo) | herbicidal effect rating, MOOVA ([3]; in vivo) | herbicidal effect rating, CYPIR ([5]; Rate 0.0313 kg/ha) | herbicidal effect rating, CYPIR ([5]; Rate 0.0625 kg/ha) | herbicidal effect rating, CYPIR ([5]; Rate 0.1250 kg/ha) | herbicidal effect rating, CYPIR ([5]; Rate 0.2500 kg/ha) | herbicidal effect rating, CYPIR ([5]; Rate 0.5000 kg/ha) | herbicidal effect rating, MOOVA ([7]; Rate 0.0313 kg/ha) | herbicidal effect rating, MOOVA ([7]; Rate 0.0625 kg/ha) | herbicidal effect rating, MOOVA ([7]; Rate 0.1250 kg/ha) | herbicidal effect rating, MOOVA ([7]; Rate 0.2500 kg/ha) | herbicidal effect rating, MOOVA ([7]; Rate 0.5000 kg/ha)
3.0: herbicidal effect rating, ORYSAT (rice tolerance) ([9]; Rate 0.1250 kg/ha) | herbicidal effect rating, ORYSAT (rice tolerance) ([9]; Rate 0.2500 kg/ha) | herbicidal effect rating, ORYSAT (rice tolerance) ([9]; Rate 0.5000 kg/ha)
4.0: herbicidal effect rating, ECHORC ([4]; Rate 0.5000 kg/ha)

Cn1c(C(F)(F)F)cc(=O)n(-c2ccc3snc(C(C#N)=Cc4ccncc4)c3c2)c1=O [Example 596, 1,2-Benzisothiazole-3-acetonitrile, 5-[3,6-dihydro-3-methyl-2,6-dioxo-4-(trifluoromethyl)-1(2H)-pyrimidinyl]-alpha-(4-pyridylmethylene)-]
7.0: herbicidal effect rating, ECHORC [1, 16] | herbicidal effect rating, MOOVA [3, 15]
0.0: herbicidal effect rating, ECHORC [1, 13] | herbicidal effect rating, CYPIR [2, 13] | herbicidal effect rating, CYPIR [2, 14] | herbicidal effect rating, CYPIR [2, 15] | herbicidal effect rating, CYPIR [2, 16] | herbicidal effect rating, CYPSE ([10]; Rate 0.0320 kg/ha) | herbicidal effect rating, CYPSE ([10]; Rate 0.0620 kg/ha) | herbicidal effect rating, CYPSE ([10]; Rate 0.1250 kg/ha) | herbicidal effect rating, CYPSE ([10]; Rate 0.2500 kg/ha) | herbicidal effect rating, SAGPY ([11]; Rate 0.0320 kg/ha) | herbicidal effect rating, SAGPY ([11]; Rate 0.0620 kg/ha) | herbicidal effect rating ORYSAT ([12]; Rate 0.0320 kg/ha)
9.0: herbicidal effect rating, MOOVA [3, 16]
4.0: herbicidal effect rating, ECHORC [1, 14] | herbicidal effect rating, MOOVA [3, 14] | herbicidal effect rating ORYSAT ([12]; Rate 0.1250 kg/ha)
3.0: herbicidal effect rating, MOOVA [3, 13] | herbicidal effect rating ORYSAT ([12]; Rate 0.0620 kg/ha)
2.0: herbicidal effect rating, SAGPY ([11]; Rate 0.1250 kg/ha)
5.0: herbicidal effect rating, ECHORC [1, 15]
6.0: herbicidal effect rating, SAGPY ([11]; Rate 0.2500 kg/ha) | herbicidal effect rating ORYSAT ([12]; Rate 0.2500 kg/ha)

Cc1ccc(C=C(C#N)c2nsc3ccc(-n4c(=O)cc(C(F)(F)F)n(C)c4=O)cc23)cc1 [Example 597, 1,2-Benzisothiazole-3-acetonitrile, 5-[3,6-dihydro-3-methyl-2,6-dioxo-4-(trifluoromethyl)-1(2H)-pyrimidinyl]-alpha-(p-methylbenzylidene)-]
4.0: herbicidal effect rating, ECHORC [1, 13] | herbicidal effect rating, MOOVA [3, 14] | herbicidal effect rating, MOOVA [3, 16]
7.0: herbicidal effect rating, ECHORC [1, 15]
6.0: herbicidal effect rating, ECHORC [1, 14]
9.0: herbicidal effect rating, ECHORC [1, 16]
0.0: herbicidal effect rating, CYPIR [2, 13] | herbicidal effect rating, CYPIR [2, 14] | herbicidal effect rating, CYPIR [2, 15] | herbicidal effect rating, CYPIR [2, 16] | herbicidal effect rating, CYPSE ([10]; Rate 0.0320 kg/ha) | herbicidal effect rating, CYPSE ([10]; Rate 0.0620 kg/ha) | herbicidal effect rating, CYPSE ([10]; Rate 0.1250 kg/ha) | herbicidal effect rating, CYPSE ([10]; Rate 0.2500 kg/ha) | herbicidal effect rating, SAGPY ([11]; Rate 0.0320 kg/ha) | herbicidal effect rating, SAGPY ([11]; Rate 0.0620 kg/ha) | herbicidal effect rating, SAGPY ([11]; Rate 0.1250 kg/ha) | herbicidal effect rating, SAGPY ([11]; Rate 0.2500 kg/ha) | herbicidal effect rating ORYSAT ([12]; Rate 0.0320 kg/ha) | herbicidal effect rating ORYSAT ([12]; Rate 0.0620 kg/ha) | herbicidal effect rating ORYSAT ([12]; Rate 0.1250 kg/ha) | herbicidal effect rating ORYSAT ([12]; Rate 0.2500 kg/ha)
